In PubChem BioAssay AID1259407 (Chemical Carcinogenesis Research Information System (CCRIS), 2018):
Calls of active or inactive are those of the source. The rule behind the calls is not given here.

System: CCRIS mutagenicity, Ames/micronucleus/aberration tests
Assay: CCRIS mutagenicity studies

## CC(C)CON=O
Test System: AMES SALMONELLA TYPHIMURIUM, Strain/Indicator: TA98, Metabolic Activation: HAMSTER, LIVER, S-9, AROCLOR 1254 (5 OR 10%), Method: PREINCUBATION
  mutagenic call: inactive; negative
Test System: AMES SALMONELLA TYPHIMURIUM, Strain/Indicator: TA98, Metabolic Activation: HAMSTER, LIVER, S-9, AROCLOR 1254 (30%), Method: PREINCUBATION
  mutagenic call: inactive; negative
Test System: AMES SALMONELLA TYPHIMURIUM, Strain/Indicator: TA98, Metabolic Activation: HAMSTER, LIVER, S-9, AROCLOR 1254, Method: STANDARD PLATE
  mutagenic call: inactive; negative
Test System: AMES SALMONELLA TYPHIMURIUM, Strain/Indicator: TA98, Metabolic Activation: NONE, Method: DESICCATOR
  mutagenic call: inactive; negative
Test System: AMES SALMONELLA TYPHIMURIUM, Strain/Indicator: TA98, Metabolic Activation: NONE, Method: FLUCTUATION (MICROTITER)
  mutagenic call: inactive; negative
Test System: AMES SALMONELLA TYPHIMURIUM, Strain/Indicator: TA98, Metabolic Activation: NONE, Method: PREINCUBATION
  mutagenic call: inactive; negative
Test System: AMES SALMONELLA TYPHIMURIUM, Strain/Indicator: TA98, Metabolic Activation: NONE, Method: STANDARD PLATE
  mutagenic call: inactive; negative
Test System: AMES SALMONELLA TYPHIMURIUM, Strain/Indicator: TA98, Metabolic Activation: RAT LIVER S-9, AROCLOR 1254, Method: FLUCTUATION (MICROTITER)
  mutagenic call: inactive; negative
Test System: AMES SALMONELLA TYPHIMURIUM, Strain/Indicator: TA98, Metabolic Activation: RAT, LIVER, S-9, AROCLOR 1254 (5 OR 10%), Method: PREINCUBATION
  mutagenic call: inactive; negative
Test System: AMES SALMONELLA TYPHIMURIUM, Strain/Indicator: TA98, Metabolic Activation: RAT, LIVER, S-9, AROCLOR 1254 (30%), Method: PREINCUBATION
  mutagenic call: inactive; negative
Test System: AMES SALMONELLA TYPHIMURIUM, Strain/Indicator: TA98, Metabolic Activation: RAT, LIVER, S-9, AROCLOR 1254, Method: DESICCATOR
  mutagenic call: inactive; negative
Test System: AMES SALMONELLA TYPHIMURIUM, Strain/Indicator: TA98, Metabolic Activation: RAT, LIVER, S-9, AROCLOR 1254, Method: STANDARD PLATE
  mutagenic call: inactive; negative
Test System: AMES SALMONELLA TYPHIMURIUM, Strain/Indicator: TA100, Metabolic Activation: HAMSTER, LIVER, S-9, AROCLOR 1254 (10%), Method: PREINCUBATION
  mutagenic call: active; positive
Test System: AMES SALMONELLA TYPHIMURIUM, Strain/Indicator: TA100, Metabolic Activation: HAMSTER, LIVER, S-9, AROCLOR 1254 (30%), Method: PREINCUBATION
  mutagenic call: active; positive
Test System: AMES SALMONELLA TYPHIMURIUM, Strain/Indicator: TA100, Metabolic Activation: HAMSTER, LIVER, S-9, AROCLOR 1254, Method: STANDARD PLATE
  mutagenic call: active; positive
Test System: AMES SALMONELLA TYPHIMURIUM, Strain/Indicator: TA100, Metabolic Activation: NONE, Method: PREINCUBATION
  mutagenic call: inactive; negative
Test System: AMES SALMONELLA TYPHIMURIUM, Strain/Indicator: TA100, Metabolic Activation: NONE, Method: STANDARD PLATE
  mutagenic call: active; positive
Test System: AMES SALMONELLA TYPHIMURIUM, Strain/Indicator: TA100, Metabolic Activation: RAT, LIVER, S-9, AROCLOR 1254 (10%), Method: PREINCUBATION
  mutagenic call: active; positive
Test System: AMES SALMONELLA TYPHIMURIUM, Strain/Indicator: TA100, Metabolic Activation: RAT, LIVER, S-9, AROCLOR 1254 (30%), Method: PREINCUBATION
  mutagenic call: active; positive
Test System: AMES SALMONELLA TYPHIMURIUM, Strain/Indicator: TA100, Metabolic Activation: RAT, LIVER, S-9, AROCLOR 1254, Method: DESICCATOR
  mutagenic call: active; positive
Test System: AMES SALMONELLA TYPHIMURIUM, Strain/Indicator: TA100, Metabolic Activation: RAT, LIVER, S-9, AROCLOR 1254, Method: STANDARD PLATE
  mutagenic call: active; positive
Test System: AMES SALMONELLA TYPHIMURIUM, Strain/Indicator: TA1535, Metabolic Activation: HAMSTER, LIVER, S-9, AROCLOR 1254 (10%), Method: PREINCUBATION
  mutagenic call: active; positive
Test System: AMES SALMONELLA TYPHIMURIUM, Strain/Indicator: TA1535, Metabolic Activation: HAMSTER, LIVER, S-9, AROCLOR 1254 (30%), Method: PREINCUBATION
  mutagenic call: active; positive
Test System: AMES SALMONELLA TYPHIMURIUM, Strain/Indicator: TA1535, Metabolic Activation: HAMSTER, LIVER, S-9, AROCLOR 1254, Method: STANDARD PLATE
  mutagenic call: active; positive
Test System: AMES SALMONELLA TYPHIMURIUM, Strain/Indicator: TA1535, Metabolic Activation: NONE, Method: DESICCATOR
  mutagenic call: active; positive
Test System: AMES SALMONELLA TYPHIMURIUM, Strain/Indicator: TA1535, Metabolic Activation: NONE, Method: STANDARD PLATE
  mutagenic call: active; positive
Test System: AMES SALMONELLA TYPHIMURIUM, Strain/Indicator: TA1535, Metabolic Activation: RAT, LIVER, S-9, AROCLOR 1254 (10%), Method: PREINCUBATION
  mutagenic call: inactive; negative
Test System: AMES SALMONELLA TYPHIMURIUM, Strain/Indicator: TA1535, Metabolic Activation: RAT, LIVER, S-9, AROCLOR 1254 (30%), Method: PREINCUBATION
  mutagenic call: active; positive
Test System: AMES SALMONELLA TYPHIMURIUM, Strain/Indicator: TA1535, Metabolic Activation: RAT, LIVER, S-9, AROCLOR 1254, Method: DESICCATOR
  mutagenic call: active; positive
Test System: AMES SALMONELLA TYPHIMURIUM, Strain/Indicator: TA1535, Metabolic Activation: RAT, LIVER, S-9, AROCLOR 1254, Method: PREINCUBATION
  mutagenic call: active; positive
Test System: AMES SALMONELLA TYPHIMURIUM, Strain/Indicator: TA1535, Metabolic Activation: RAT, LIVER, S-9, AROCLOR 1254, Method: STANDARD PLATE
  mutagenic call: active; positive
Test System: AMES SALMONELLA TYPHIMURIUM, Strain/Indicator: TA1537, Metabolic Activation: HAMSTER, LIVER, S-9, AROCLOR 1254 (10%), Method: PREINCUBATION
  mutagenic call: inactive; negative
Test System: AMES SALMONELLA TYPHIMURIUM, Strain/Indicator: TA1537, Metabolic Activation: HAMSTER, LIVER, S-9, AROCLOR 1254, Method: STANDARD PLATE
  mutagenic call: inactive; negative
Test System: AMES SALMONELLA TYPHIMURIUM, Strain/Indicator: TA1537, Metabolic Activation: NONE, Method: FLUCTUATION (MICROTITER)
  mutagenic call: inactive; negative
Test System: AMES SALMONELLA TYPHIMURIUM, Strain/Indicator: TA1537, Metabolic Activation: NONE, Method: PREINCUBATION
  mutagenic call: inactive; negative
Test System: AMES SALMONELLA TYPHIMURIUM, Strain/Indicator: TA1537, Metabolic Activation: NONE, Method: STANDARD PLATE
  mutagenic call: inactive; negative
Test System: AMES SALMONELLA TYPHIMURIUM, Strain/Indicator: TA1537, Metabolic Activation: RAT LIVER S-9, AROCLOR 1254, Method: FLUCTUATION (MICROTITER)
  mutagenic call: inactive; negative
Test System: AMES SALMONELLA TYPHIMURIUM, Strain/Indicator: TA1537, Metabolic Activation: RAT, LIVER, S-9, AROCLOR 1254 (10%), Method: PREINCUBATION
  mutagenic call: inactive; negative
Test System: AMES SALMONELLA TYPHIMURIUM, Strain/Indicator: TA1537, Metabolic Activation: RAT, LIVER, S-9, AROCLOR 1254, Method: STANDARD PLATE
  mutagenic call: inactive; negative
Test System: AMES SALMONELLA TYPHIMURIUM, Strain/Indicator: TA7001, Metabolic Activation: NONE, Method: FLUCTUATION (MICROTITER)
  mutagenic call: inactive; negative
Test System: AMES SALMONELLA TYPHIMURIUM, Strain/Indicator: TA7001, Metabolic Activation: RAT LIVER S-9, AROCLOR 1254, Method: FLUCTUATION (MICROTITER)
  mutagenic call: inactive; negative
Test System: AMES SALMONELLA TYPHIMURIUM, Strain/Indicator: TA7002, Metabolic Activation: NONE, Method: FLUCTUATION (MICROTITER)
  mutagenic call: inactive; negative
Test System: AMES SALMONELLA TYPHIMURIUM, Strain/Indicator: TA7002, Metabolic Activation: RAT LIVER S-9, AROCLOR 1254, Method: FLUCTUATION (MICROTITER)
  mutagenic call: inactive; negative
Test System: AMES SALMONELLA TYPHIMURIUM, Strain/Indicator: TA7003, Metabolic Activation: NONE, Method: FLUCTUATION (MICROTITER)
  mutagenic call: inactive; negative
Test System: AMES SALMONELLA TYPHIMURIUM, Strain/Indicator: TA7003, Metabolic Activation: RAT LIVER S-9, AROCLOR 1254, Method: FLUCTUATION (MICROTITER)
  mutagenic call: inactive; negative
Test System: AMES SALMONELLA TYPHIMURIUM, Strain/Indicator: TA7004, Metabolic Activation: NONE, Method: FLUCTUATION (MICROTITER)
  mutagenic call: inactive; negative
Test System: AMES SALMONELLA TYPHIMURIUM, Strain/Indicator: TA7004, Metabolic Activation: RAT LIVER S-9, AROCLOR 1254, Method: FLUCTUATION (MICROTITER)
  mutagenic call: inactive; negative
Test System: AMES SALMONELLA TYPHIMURIUM, Strain/Indicator: TA7005, Metabolic Activation: NONE, Method: FLUCTUATION (MICROTITER)
  mutagenic call: inactive; negative
Test System: AMES SALMONELLA TYPHIMURIUM, Strain/Indicator: TA7005, Metabolic Activation: RAT LIVER S-9, AROCLOR 1254, Method: FLUCTUATION (MICROTITER)
  mutagenic call: inactive; negative
Test System: AMES SALMONELLA TYPHIMURIUM, Strain/Indicator: TA7006, Metabolic Activation: NONE, Method: FLUCTUATION (MICROTITER)
  mutagenic call: inactive; negative
Test System: AMES SALMONELLA TYPHIMURIUM, Strain/Indicator: TA7006, Metabolic Activation: RAT LIVER S-9, AROCLOR 1254, Method: FLUCTUATION (MICROTITER)
  mutagenic call: inactive; negative
Test System: MOUSE LYMPHOMA, Strain/Indicator: L5178Y (TK+/TK-), Metabolic Activation: NONE, Method: SUSPENSION/PLATE
  mutagenic call: active; positive
Test System: MOUSE LYMPHOMA, Strain/Indicator: L5178Y (TK+/TK-), Metabolic Activation: RAT, LIVER, S-9, AROCLOR 1254, Method: SUSPENSION/PLATE
  mutagenic call: active; positive
Test System: Mouse lymphoma, Strain/Indicator: L5178Y (tk+/tk-), Metabolic Activation: Rat, Liver, S-9, Aroclor 1254, Method: Suspension/plate
  mutagenic call: active; positive
